This is an account of results in article doi:10.1101/637801v3 (biorxiv, 2019).

SMILES strings stand for the structures.

The target in test [1] is rPtxS1 (recombinant pertussis toxin S1 subunit, wild type) (Bordetella pertussis, UniProt P04977). Briefly: fluorometric NAD+ consumption assay. The format is biochemical.
Test [2] deals with pertussis AB5 holotoxin (PtxS1-S5) (Bordetella pertussis, UniProt P04977). Briefly: cell-based.
pertussis AB5 holotoxin (PtxS1-S5), sequence (P04977 whole entry, looked up): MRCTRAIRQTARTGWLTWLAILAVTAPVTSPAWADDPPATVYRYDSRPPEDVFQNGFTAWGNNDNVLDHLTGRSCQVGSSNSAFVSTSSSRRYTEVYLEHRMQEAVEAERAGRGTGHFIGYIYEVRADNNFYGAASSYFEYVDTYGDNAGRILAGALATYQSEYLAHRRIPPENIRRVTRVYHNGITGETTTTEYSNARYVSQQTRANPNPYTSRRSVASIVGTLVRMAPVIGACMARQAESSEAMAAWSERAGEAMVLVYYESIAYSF

rPtxS1 (recombinant pertussis toxin S1 subunit, wild type), sequence (P04977 35-221 limits assumed): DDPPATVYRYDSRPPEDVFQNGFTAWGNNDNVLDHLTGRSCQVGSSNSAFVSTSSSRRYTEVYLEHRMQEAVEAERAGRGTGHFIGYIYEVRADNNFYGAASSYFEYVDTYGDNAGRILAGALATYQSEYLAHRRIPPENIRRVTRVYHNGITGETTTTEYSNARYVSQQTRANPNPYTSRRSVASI

In the case of `Sc1nc2c[nH]c(S)nc-2n1` [NSC29193, purine-2,8-dithiol], the IC50 in test [1] is 6.8 µM.

`O=C(/C=C/c1cccnc1)/C=C/c1cccnc1` [NSC149286]: the half-maximal inhibitory concentration (IC50) in test [1] worked out at 20 µM. In the case of `O=[N+]([O-])c1ccc(Sc2cccc[n+]2[O-])c2nonc12` [NSC228155, 7-nitro-4-(1-oxidopyridin-1-ium-2-yl)sulfanyl-2,1,3-benzoxadiazole], the 50% inhibitory concentration (IC50) is 3 µM in test [1] and 2.35 µM in test [2].
